Consider 17 molecules from patent publication US12577234B2, “Antagonists of the muscarinic acetylcholine receptor M4” (Vanderbilt University, priority 2017, dated 2026).

The target of the assay is T1, human mAChR M4 (Homo sapiens, UniProt P08173).
T1 construct: expressed in transfected cells; host or cells: CHO-K1 (ATCC), stably co-expressing chimeric G protein Gqi5
T1 sequence (P08173 1-479): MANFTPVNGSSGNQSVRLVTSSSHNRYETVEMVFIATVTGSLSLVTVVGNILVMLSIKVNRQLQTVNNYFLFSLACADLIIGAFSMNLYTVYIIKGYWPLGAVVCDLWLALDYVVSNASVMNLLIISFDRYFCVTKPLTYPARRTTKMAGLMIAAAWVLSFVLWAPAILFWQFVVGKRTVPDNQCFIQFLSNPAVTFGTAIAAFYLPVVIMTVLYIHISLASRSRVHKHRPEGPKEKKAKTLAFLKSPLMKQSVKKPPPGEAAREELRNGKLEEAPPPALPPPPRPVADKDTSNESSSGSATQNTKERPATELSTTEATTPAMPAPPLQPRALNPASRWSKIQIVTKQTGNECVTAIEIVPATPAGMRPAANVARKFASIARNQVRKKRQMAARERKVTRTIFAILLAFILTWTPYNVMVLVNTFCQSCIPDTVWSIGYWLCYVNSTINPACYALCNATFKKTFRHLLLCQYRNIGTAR
In words: mAChR M4 cell-based functional assay (calcium mobilization, EC80 acetylcholine), human M4. As to conditions: Table 9; for Emin: human M4, % ACh maximum at 30 μM. On the procedure: Human or rat M4 cDNA, along with the chimeric G protein Gqi5, were transfected into Chinese hamster ovary (CHO-K1) cells purchased from the American Type Culture Collection using Lipofectamine2000. M4/Gqi5/CHO cells were grown in Ham's F-12 medium containing 10% heat-inactivated fetal bovine serum (FBS), 20 mM HEPES, 500 μg/mL G418 sulfate, and 200 μg/mL Hygromycin B.
For high throughput measurement of agonist-evoked increases in intracellular calcium, CHO-K1 cells stably expressing muscarinic receptors were plated in growth medium lacking G418 and hygromycin at 15,000 cells/20 μL/well in Greiner 384-well black-walled, tissue culture (TC)-treated, clear-bottom plates (VWR). Cells were incubated overnight at 37° C. and 5% CO2. […] Compound master plates were formatted in a 10 point concentration-response curve (CRC) format (1:3 dilutions) in 100% DMSO with a starting concentration of 10 or 1 mM using a BRAVO liquid handler (Agilent). Test compound CRCs were then transferred to daughter plates (240 nL) using the Echo acoustic plate reformatter (Labcyte, Sunnyvale, CA) and then diluted into assay buffer (40 μL) to a 2× stock using a Thermo Fisher Combi (Thermo Fisher Scientific, Waltham, MA).
Calcium flux was measured using the Functional Drug Screening System (FDSS) 6000 or 7000 (Hamamatsu Corporation, Tokyo, Japan) as an increase in the fluorescent static ratio. Compounds were applied to cells (20 μL, 2×) using the automated system of the FDSS at 2 seconds into the protocol and the data were collected at 1 Hz. […] Agonist activity was analyzed as a concentration-dependent increase in calcium mobilization upon compound addition. Positive allosteric modulator activity was analyzed as a concentration-dependent increase in the EC20 acetylcholine response. Antagonist activity was analyzed as a concentration-dependent decrease in the EC80 acetylcholine response; for the purposes of the tables herein, an IC50 (inhibitory concentration 50) was calculated as a concentration-dependent decrease of the response elicited by an EC80 concentration of acetylcholine. Concentration-response curves were generated using a four-parameter logistical equation in XLFit curve fitting software (IDBS, Bridgewater, NJ) for Excel (Microsoft, Redmond, WA) or Prism (GraphPad Software, Inc., San Diego, CA) or the Dotmatics software platform (Dotmatics, Bishop's Stortford, UK).
For orientation: A change in cytosolic calcium serves as a functional read-out for many receptors and channels.

Where [1] appears, read: M4/Gqi5/CHO-K1 cells, decrease of EC80 acetylcholine response.

By IC50 is commonly meant the point on the concentration scale where inhibition reaches its midpoint.

Consider `Cc1nn(C)cc1-c1ccc(N[C@@H]2C[C@@H]3CN(CC45CC6CC(CC(C6)C4)C5)C[C@@H]3C2)c(F)c1F` [Compound 45, (3aR,5r,6aS)-2-(1-adamantylmethyl)-N-[4-(1,3-dimethylpyrazol-4-yl)-2,3-difluoro-phenyl]-3,3a,4,5,6,6a-hexahydro-1H-cyclopenta[c]pyrrol-5-amine], for which the Emin was found to be 12.0%. Moreover, the IC50 under setting [1] was found to be 6.59 µM.
On to `Cc1nn(C)cc1-c1ccc(O[C@@H]2C[C@@H]3CN(CC(C)C(C)(C)C)C[C@@H]3C2)nn1` (stereo partly drawn) [Compound 46, (3aR,5r,6aS)-5-[6-(1,3-Dimethylpyrazol-4-yl)pyridazin-3-yl]oxy-2-(2,3,3-trimethylbutyl)-3,3a,4,5,6,6a-hexahydro-1H-cyclopenta[c]pyrrole], for which the Emin was 4.08%. For the same molecule, the IC50 under setting [1] was 1.13 µM.
Regarding `Cc1nn(C)cc1-c1ccc(O[C@@H]2C[C@@H]3CN(CC4CC5C=CC4C5)C[C@@H]3C2)nn1` (stereo partly drawn) [Compound 47, (3aR,5r,6aS)-2-(5-bicyclo[2.2.1]hept-2-enylmethyl)-5-[6-(1,3-dimethylpyrazol-4-yl)pyridazin-3-yl]oxy-3,3a,4,5,6,6a-hexahydro-1H-cyclopenta[c]pyrrole], the Emin was found to be 3.08%. Moreover, the IC50 under setting [1] was found to be 0.0945 µM.
With `Cc1nn(C)cc1-c1ccc(O[C@@H]2C[C@@H]3CN(CCC(C)(C)C)C[C@@H]3C2)nn1` [Compound 48, (3aR,5r,6aS)-2-(3,3-dimethylbutyl)-5-[6-(1,3-dimethylpyrazol-4-yl)pyridazin-3-yl]oxy-3,3a,4,5,6,6a-hexahydro-1H-cyclopenta[c]pyrrole], the Emin came to 3.79%. Under setting [1], the IC50 was determined as 0.361 µM.
In the case of `Cc1nn(C)cc1-c1ccc(O[C@@H]2C[C@@H]3CN(CC4CCCCC4)C[C@@H]3C2)nn1` [Compound 49, (3aR,5r,6aS)-2-(cyclohexylmethyl)-5-[6-(1,3-dimethylpyrazol-4-yl)pyridazin-3-yl]oxy-3,3a,4,5,6,6a-hexahydro-1H-cyclopenta[c]pyrrole], the Emin is 3.17%. The IC50 under setting [1] was determined as 0.272 µM.
On the same counts, the results for `Cc1nn(C)cc1-c1ccc(O[C@@H]2C[C@@H]3CN(CC4CCOCC4)C[C@@H]3C2)nn1` [Compound 50, (3aR,5r,6aS)-5-[6-(1,3-dimethylpyrazol-4-yl)pyridazin-3-yl]oxy-2-(tetrahydropyran-4-ylmethyl)-3,3a,4,5,6,6a-hexahydro-1H-cyclopenta[c]pyrrole] are 15.6% and 6.03 µM.
On the same counts, the results for `Cc1nn(C)cc1-c1ccc(O[C@@H]2C[C@@H]3CN(CC4CCCOC4)C[C@@H]3C2)nn1` (stereo partly drawn) [Compound 51, (3aR,5r,6aS)-5-[6-(1,3-dimethylpyrazol-4-yl)pyridazin-3-yl]oxy-2-(tetrahydropyran-3-ylmethyl)-3,3a,4,5,6,6a-hexahydro-1H-cyclopenta[c]pyrrole] are 19.8% and 7.85 µM.
`Cc1cccnc1CN1C[C@H]2C[C@@H](Oc3ccc(-c4cn(C)nc4C)nn3)C[C@H]2C1` [Compound 52, (3aR,5r,6aS)-5-[6-(1,3-dimethylpyrazol-4-yl)pyridazin-3-yl]oxy-2-[(3-methyl-2-pyridyl)methyl]-3,3a,4,5,6,6a-hexahydro-1H-cyclopenta[c]pyrrole]: the Emin worked out at 26.4%. The IC50 (μM) is over 10 µM.
Regarding `Fc1ccc(Cl)c(-c2ccc(O[C@@H]3C[C@@H]4CN(CC5CC6C=CC5C6)C[C@@H]4C3)nn2)c1` (stereo partly drawn) [Compound 53, (3aR,5r,6aS)-2-(5-bicyclo[2.2.1]hept-2-enylmethyl)-5-[6-(2-chloro-5-fluoro-phenyl)pyridazin-3-yl]oxy-3,3a,4,5,6,6a-hexahydro-1H-cyclopenta[c]pyrrole], the Emin is on record as 3.21%. Under setting [1], the IC50 stood at 0.1 µM.
Taken in the same sequence, the figures for `CC(C)(C)CCN1C[C@H]2C[C@@H](Oc3ccc(-c4cc(F)ccc4Cl)nn3)C[C@H]2C1` [Compound 54, (3aR,5r,6aS)-5-[6-(2-chloro-5-fluoro-phenyl)pyridazin-3-yl]oxy-2-(3,3-dimethylbutyl)-3,3a,4,5,6,6a-hexahydro-1H-cyclopenta[c]pyrrole] were 3.07% and 0.222 µM.
Taken in the same sequence, the figures for `CC(CN1C[C@H]2C[C@@H](Oc3ccc(-c4cc(F)ccc4Cl)nn3)C[C@H]2C1)C(C)(C)C` (stereo partly drawn) [Compound 55, (3aR,5r,6aS)-5-[6-(2-chloro-5-fluoro-phenyl)pyridazin-3-yl]oxy-2-(2,3,3-trimethylbutyl)-3,3a,4,5,6,6a-hexahydro-1H-cyclopenta[c]pyrrole] were 3.60% and 0.43 µM.
As to `Fc1ccc(Cl)c(-c2ccc(O[C@@H]3C[C@@H]4CN(CC5CCCCC5)C[C@@H]4C3)nn2)c1` [Compound 56, (3aR,5r,6aS)-5-[6-(2-chloro-5-fluoro-phenyl)pyridazin-3-yl]oxy-2-(cyclohexylmethyl)-3,3a,4,5,6,6a-hexahydro-1H-cyclopenta[c]pyrrole], the Emin worked out at 3.63%. In addition, under setting [1], the half-inhibitory concentration (IC50) was 0.154 µM.
For the molecule `Fc1ccc(Cl)c(-c2ccc(O[C@@H]3C[C@@H]4CN(CC5CCCOC5)C[C@@H]4C3)nn2)c1` (stereo partly drawn) [Compound 57, (3aR,5r,6aS)-5-[6-(2-chloro-5-fluoro-phenyl)pyridazin-3-yl]oxy-2-(tetrahydropyran-3-ylmethyl)-3,3a,4,5,6,6a-hexahydro-1H-cyclopenta[c]pyrrole], the Emin amounted to 6.99%. In addition, the IC50 under setting [1] amounted to 3.07 µM.
Taken in the same sequence, the figures for `Cc1cccnc1CN1C[C@H]2C[C@@H](Oc3ccc(-c4cc(F)ccc4Cl)nn3)C[C@H]2C1` [Compound 58, (3aR,5r,6aS)-5-[6-(2-chloro-5-fluoro-phenyl)pyridazin-3-yl]oxy-2-[(3-methyl-2-pyridyl)methyl]-3,3a,4,5,6,6a-hexahydro-1H-cyclopenta[c]pyrrole] were 6.11% and 1.46 µM.
Turning to `Fc1ccc(Cl)c(-c2ccc(O[C@@H]3C[C@@H]4CN(CC5CCOCC5)C[C@@H]4C3)nn2)c1` [Compound 59, (3aR,5r,6aS)-5-[6-(2-chloro-5-fluoro-phenyl)pyridazin-3-yl]oxy-2-(tetrahydropyran-4-ylmethyl)-3,3a,4,5,6,6a-hexahydro-1H-cyclopenta[c]pyrrole], the Emin is reported as 20.7%. In addition, the IC50 (μM) is over 10 µM.
As to `Cc1cnn(C)c1-c1ccc(NC[C@H]2C[C@@H]3CN(CCC(C)(C)C)C[C@@H]3C2)nn1` [Compound 61, N-[[(3aR,5s,6aS)-2-(3,3-Dimethylbutyl)-3,3a,4,5,6,6a-hexahydro-1H-cyclopenta[c]pyrrol-5-yl]methyl]-6-(2,4-dimethylpyrazol-3-yl)pyridazin-3-amine], the Emin came to 3.12%. The IC50 under setting [1] amounted to 0.0356 µM.
With `Cc1nn(C)cc1-c1ccc(NCC2C[C@@H]3CN(CC4CC5C=CC4C5)C[C@@H]3C2)nn1` (stereo partly drawn) [Compound 62, N-[[(3aR,6aS)-2-(5-bicyclo[2.2.1]hept-2-enylmethyl)-3,3a,4,5,6,6a-hexahydro-1H-cyclopenta[c]pyrrol-5-yl]methyl]-6-(1,3-dimethylpyrazol-4-yl)pyridazin-3-amine], the Emin turned out to be 3.32%. In addition, under setting [1], the IC50 worked out at 0.0189 µM.
